Test results taken from patent EP0561850B1, “7-SUBSTITUTED-6-FLUORO-1,4-DIHYDRO-4-OXO-QUINOLINE-3-CARBOXYLIC ACID COMPOUNDS USEFUL AS ANTIBACTERIAL AGENTS” (priority 1990, dated 1992).
In brackets after ≈: the same amount, converted by molar mass. Counter-ions that a name gives are not always drawn.

Columns and labels:
[1] = system: Staphylococcus aureus S-127; assay: In vitro antimicrobial activity against aerobes, broth microdilution (NCCLS 1985); assay type: cell-based; conditions: S127, read after 16-18 hours
Experimental: (§1) For aerobic microorganisms, a cation supplemented Mueller Hinton Broth (BBL) was used whereas the Anaerobe Broth MIC (Difco) was used for anaerobic microorganisms. An agar Dilution method was employed for certain aerobic microorganisms using Mueller Hinton II Agar (BBL) and a Cathra multipoint inoculating device which delivered 10^4 cfu/spot of the inoculum on the agar surface. MICs were read after 16-18 hours and 48 hours of incubation in case of microbes growing aerobically and anaerobically respectively.

Sa 127M = assay: Microbroth dilution (MHB) method, NCCLS M7-A2; assay type: cell-based, Staphylococcus aureus; conditions: Staphylococcus aureus, inoculum 5 x 10^5 cfu/ml, 35 °C/18 hr, read-out: MIC
Experimental: (§2) The test organisms were obtained from ATCC and clinical laboratories. The 96-well microtitre plates containing […] of serially diluted test compounds in Mueller Hinton Broth (MHB) (conc. range 64-0.03 µg/ml) were inoculated with […] of bacterial suspension in MHB so that an inoculum size of 5 x 10^5 cfu/ml was achieved.
(§3) EC. (S- 63): Eschericia coli Ecl. (S- 130): Enterobacter cloacae Pa. (S- 67): Pseudomonas aeruginosa Kp. (S- 80): Klebsiella pneumoniae Pr.
(§4) Microbroth Dilution (MHB) method; Inoculum, 5 x 10^5 cfu/ml; Incubation 35 °C/18 hr

[2] = system: Fusobacterium mortiferum AN-13; assay: In vitro antimicrobial activity against anaerobes, broth microdilution; assay type: cell-based; conditions: Fusobacterium mortiferum, AN13, 48 h
Description: as §1, with “The compounds of the invention display antibacterial activity when tested by the broth microdilution method as described in the NCCLS publications M7-A, M11-A and M17-P of the year 1985. For” for “For”
(§5) By use of the above method, the following minimum inhibitory concentration values (MICs in µg/ml) were obtained: Table 1, against microbes growing aerobically; Table 2, against microbes growing anaerobically; Table 3, against methicillin resistant Staphylococcus aureus and quinoline resistant-methicillin resistant Staphylococcus aureus.

[3] = system: Streptococcus intermedius AN-19; assay: as above; assay type: cell-based; conditions: Streptococcus intermedius, AN19, 48 h
Description: as §1, with “The compounds of the invention display antibacterial activity when tested by the broth microdilution method as described in the NCCLS publications M7-A, M11-A and M17-P of the year 1985. For” for “For”
as §5

[4] = system: Propionobacterium acne AN-17; assay: as above; assay type: cell-based; conditions: 48 h
Description: as §1, with “The compounds of the invention display antibacterial activity when tested by the broth microdilution method as described in the NCCLS publications M7-A, M11-A and M17-P of the year 1985. For” for “For”
as §5

[5] = system: Peptostreptococcus asaccharolyticus AN-16; assay: as above; assay type: cell-based; conditions: Peptoniphilus asaccharolyticus, AN16, 48 h
Description: as §1, with “The compounds of the invention display antibacterial activity when tested by the broth microdilution method as described in the NCCLS publications M7-A, M11-A and M17-P of the year 1985. For” for “For”
as §5

Bacteroides fagilis AN-2 = assay: as above; assay type: cell-based; conditions: Bacteroides, AN2, 48 h
Description: as §1, with “The compounds of the invention display antibacterial activity when tested by the broth microdilution method as described in the NCCLS publications M7-A, M11-A and M17-P of the year 1985. For” for “For”
as §5

[6] = system: Providencia rettgeri S-121; assay: Microbroth dilution (MHB) method, NCCLS M7-A2; assay type: cell-based; conditions: Providencia rettgeri, S121, Pr S-121, inoculum 5 x 10^5 cfu/ml, 35 °C/18 hr, read-out: MIC
Experimental: as §2, §3, §4

Eschericia coli S-63 = assay: Microbroth dilution (MHB) method, NCCLS M7-A2; assay type: cell-based; conditions: Ec S-63, inoculum 5 x 10^5 cfu/ml, 35 °C/18 hr, read-out: MIC
Experimental: as §2, §3, §4

[7] = system: Klebsiella pneumoniae S-80; assay: Microbroth dilution (MHB) method, NCCLS M7-A2; assay type: cell-based; conditions: Klebsiella pneumoniae, S80
Experimental: as §2, §3, §4

[8] = system: Pseudomonas aeruginosa S-67; assay: Microbroth dilution (MHB) method, NCCLS M7-A2; assay type: cell-based; conditions: Pseudomonas aeruginosa, S67
Experimental: as §2, §3, §4

CCOC(=O)c1cn(C2CC2)c2nc(N3C[C@@H](N)[C@@H](n4ccnn4)C3)c(F)cc2c1=O (relative stereo) [Example 6, Ethyl 7-[cis-3-amino-4-(1,2,3-triazol-1-yl)pyrrolidin-1-yl] -1-cyclopropyl-6-fluoro-1,4-dihydro-4-oxo-1,8-naphthyridine-3-carboxylate]
MIC [1]: ≤ 0.03 µg/mL

N[C@@H]1CN(c2c(F)cc3c(=O)c(C(=O)O)cn(C4CC4)c3c2F)C[C@@H]1n1ccnn1 (relative stereo) [Example 17, 7-[cis-3-Amino-4-(1,2,3-triazol-1-yl)-pyrrolidin-1-yl]-1-cyclopropyl-6,8-difluoro-1,4-dihydro-4-oxo-quinoline-3-carboxylic acid]
MIC [1]: 1 µg/mL (≈ 2.4 µM)

Nc1c(F)c(N2C[C@@H](N)[C@@H](n3ccnn3)C2)c(F)c2c1c(=O)c(C(=O)O)cn2C1CC1 (relative stereo) [Example 18, 5-Amino-7-[cis-3-amino-4-(1,2,3-triazol-1-yl)-pyrrolidin-1-yl]-1-cyclopropyl-6,8-difluoro-1,4-dihydro-4-oxo-quinoline-3-carboxylic acid]
MIC [1]: 0.5 µg/mL (≈ 1.16 µM)

Nc1c(F)c(N2C[C@@H](N)[C@@H](n3ccnn3)C2)c(F)c2c1c(=O)c(C(=O)O)cn2-c1ccc(F)cc1F (relative stereo) [Example 19, 5-Amino-7-[cis-3-amino-4-(1,2,3-triazol-1-yl)-pyrrolidin-1-yl]-1-(2,4-difluorophenyl)-6,8-difluoro-1,4-dihydro-4-oxo-quinoline-3-carboxylic acid]
MIC [1]: 0.5 µg/mL (≈ 0.993 µM)

O=C(O)c1cn(C2CC2)c2cc(N3CCNCC3)c(F)cc2c1=O [Ciprofloxacin, reference compound]
MIC (Sa 127M): 8 µg/mL (≈ 24.1 µM)
MIC [2]: 16 µg/mL (≈ 48.3 µM)
MIC [3]: 1 µg/mL (≈ 3.02 µM)
MIC [4]: 0.5 µg/mL (≈ 1.51 µM)
MIC [5]: 4 µg/mL (≈ 12.1 µM)
MIC (Bacteroides fagilis AN-2): 16 µg/mL (≈ 48.3 µM)
MIC [6]: 0.015 µg/mL (≈ 0.0453 µM)
MIC (Eschericia coli S-63): ≤ 0.008 µg/mL
MIC [7]: 0.015 µg/mL (≈ 0.0453 µM)
MIC [8]: 0.25 µg/mL (≈ 0.754 µM)

O=C(O)c1cn(-c2ccc(F)cc2)c2c(F)c(N3CCC(n4ccnn4)C3)c(F)cc2c1=O (stereo not drawn) [Example 2, 6,8-Difluoro-1-(4-fluorophenyl)-7-[3-(1,2,3-triazol-1-yl)-pyrrolidin-1-yl]-1,4-dihydro-4-oxo-quinoline-3-carboxylic acid]
MIC [1]: ≤ 0.06 µg/mL

CCOC(=O)c1cn(C2CC2)c2nc(N3CC[C@H](n4ccnn4)C3)c(F)cc2c1=O [Example 4, Ethyl 1-cyclopropyl-6-fluoro-7-[3(S)-(1,2,3-triazol-1-yl)pyrrolidin-1-yl]-1,4-dihydro-4-oxo-1,8-naphthyridine-3-carboxylate]
MIC [1]: ≤ 0.06 µg/mL

O=C(O)c1cn(C2CC2)c2nc(N3CC[C@H](n4ccnn4)C3)c(F)cc2c1=O [Example 5]
MIC [1]: ≤ 0.03 µg/mL

NC1CN(c2nc3c(cc2F)c(=O)c(C(=O)O)cn3C2CC2)CC1n1ccnn1 (stereo not drawn) [Example 7, 7-[cis-3-Amino-4-(1,2,3-triazol-1-yl)pyrrolidin-1-yl]-1-cyclopropyl-6-fluoro-1,4-dihdyro-4-oxo-1,8-naphthyridine-3-carboxylic acid hydrochloride]
MIC [1]: 0.008 µg/mL
